Experimental data reported in ChEMBL document CHEMBL1201862, “PubChem BioAssay data set” (2004).
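Cultured in 96-well plates, cells were exposed to test compound for 48 hours across five concentrations. GI50: concentration for 50% inhibition of growth.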 Active and inactive are the calls of the source. Rule as the data show it: active = GI50 up to about 1.1 µM and inactive = higher.

How the values were obtained:
Assay in all cases: NCI anticancer screen, dose series, 48 h
M19-MEL = tested on: M19-MEL
SNB-78 = tested on: SNB-78
DMS-273 = tested on: DMS-273
DMS-114 = tested on: DMS-114
ACHN = tested on: ACHN
SN12C = tested on: SN12C
KM-20L2 = tested on: KM-20L2
PC-3 = tested on: PC-3
NCI-H226 = tested on: NCI-H226
BT-549 = tested on: BT-549
T47D = tested on: T47D
MDA-MB-231 = tested on: MDA-MB-231
DU-145 = tested on: DU-145
MDA-N = tested on: MDA-N
A498 = tested on: A498
MDA-MB-435 = tested on: MDA-MB-435
Hs-578T = tested on: Hs-578T
SF-539 = tested on: SF-539
SF-268 = tested on: SF-268
NCI-H522 = tested on: NCI-H522

SMILES | GI50 (M19-MEL) | GI50 (SNB-78) | GI50 (DMS-273) | GI50 (DMS-114) | GI50 (ACHN) | GI50 (SN12C) | GI50 (KM-20L2) | GI50 (PC-3) | GI50 (NCI-H226) | GI50 (BT-549) | GI50 (T47D) | GI50 (MDA-MB-231) | GI50 (DU-145) | GI50 (MDA-N) | GI50 (A498) | GI50 (MDA-MB-435) | GI50 (Hs-578T) | GI50 (SF-539) | GI50 (SF-268) | GI50 (NCI-H522)
COc1ccc(C2C(C(=O)O)=C(CO)Oc3cc4c(cc32)OCO4)cc1 (configuration not stated) | > 100 µM (inactive) | > 100 µM (inactive) | > 100 µM (inactive) | > 100 µM (inactive) | > 100 µM (inactive) | > 100 µM (inactive) | > 100 µM (inactive) | – | – | – | – | – | – | – | – | – | – | – | – | –
OC[C@H]1NC[C@@H](O)[C@@H](O)[C@H]1O | – | – | – | – | – | > 100 µM (inactive) | – | > 100 µM (inactive) | > 100 µM (inactive) | > 100 µM (inactive) | > 100 µM (inactive) | > 100 µM (inactive) | > 10 µM (inactive) | > 100 µM (inactive) | > 100 µM (inactive) | > 100 µM (inactive) | > 100 µM (inactive) | – | – | –
O=c1[nH]nc(NCc2ccccc2)c2nnn(Cc3ccccc3)c12 | – | – | – | – | > 100 µM (inactive) | > 100 µM (inactive) | – | > 100 µM (inactive) | – | > 100 µM (inactive) | – | > 100 µM (inactive) | > 100 µM (inactive) | > 100 µM (inactive) | – | > 100 µM (inactive) | – | – | – | –
CC1C(O)[C@@]2(OC[C@@]34C(=O)CC5(O)[C@H](CCC6Cc7nc8c(nc7C[C@]65C)CC5CC[C@@H]6C7=C[C@H]9O[C@@]%10(O[C@@](C)(CO)C[C@@H]%10O)C(C)[C@@]9(O)[C@]7(C)[C@@H](O)CC6[C@]5(C)C8)C3=CC[C@H]4C2C)OC1(C)C (some centres not stated) | 0.442 µM (active) | 0.00146 µM (active) | < 0.000355 µM (active) | < 0.000355 µM (active) | – | 0.628 µM (active) | 0.000796 µM (active) | – | > 3.55 µM (inactive) | – | – | – | – | – | < 0.000355 µM (active) | – | – | < 0.000355 µM (active) | 0.000659 µM (active) | 0.00308 µM (active)
C[Si](C)(OCCS(=O)(=O)O)C1(Cc2cccc3ccccc23)S(=O)(=O)OCCOS1(=O)=O | – | – | – | – | 18.1 µM (inactive) | 18.2 µM (inactive) | – | 19 µM (inactive) | 19.5 µM (inactive) | 18.5 µM (inactive) | 17.1 µM (inactive) | 18.1 µM (inactive) | 19.6 µM (inactive) | 17.8 µM (inactive) | 15.9 µM (inactive) | 18.6 µM (inactive) | 33.2 µM (inactive) | 18.6 µM (inactive) | 23.2 µM (inactive) | 13.7 µM (inactive)
NC(CCOCCP(=O)(O)O)C(=O)O (configuration not stated) | – | – | – | – | > 100 µM (inactive) | > 100 µM (inactive) | – | > 100 µM (inactive) | – | > 100 µM (inactive) | 57.7 µM (inactive) | > 100 µM (inactive) | > 100 µM (inactive) | > 100 µM (inactive) | – | > 100 µM (inactive) | > 100 µM (inactive) | > 100 µM (inactive) | > 100 µM (inactive) | > 100 µM (inactive)
N=S(=O)(c1ccccc1)c1ccccc1 | > 100 µM (inactive) | > 100 µM (inactive) | – | > 100 µM (inactive) | > 100 µM (inactive) | > 100 µM (inactive) | > 100 µM (inactive) | – | > 100 µM (inactive) | – | – | – | – | – | > 100 µM (inactive) | – | – | > 100 µM (inactive) | > 100 µM (inactive) | > 100 µM (inactive)
Nc1nc(=O)[nH][nH]1 | > 100 µM (inactive) | > 100 µM (inactive) | > 100 µM (inactive) | > 100 µM (inactive) | – | > 100 µM (inactive) | > 100 µM (inactive) | – | > 100 µM (inactive) | – | – | – | – | – | > 100 µM (inactive) | – | – | > 100 µM (inactive) | > 100 µM (inactive) | > 100 µM (inactive)
